Key:
[1] = test system: Rabbit Psoas myofibrils (skeletal myosin ATPase); test: Myofibril ATPase assay, rabbit psoas (skeletal) myofibrils; type: biochemical; settings: rabbit psoas myofibrils
How it was run: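 Readout: A340 decline from NADH oxidation, PK/LDH-coupled to ADP release; kinetic reads over 75 min. Buffer: pCa (PIPES, CaCl2, EGTA), pH 7.0. Linear-regression slopes vs vehicle, 4PL fit; reported as concentration giving 75% (Y75) or 125% (Y125) of vehicle activity.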

[2] = test system: Porcine atria myofibrils (atrial myosin ATPase); test: Myofibril ATPase assay, porcine atria myofibrils; type: biochemical; settings: porcine atria myofibrils
How it was run: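 Coupled PK-LDH readout, NADH loss at 340 nm, kinetic 75 min. Porcine atria myofibrils, pCa buffer (PIPES/CaCl2/EGTA, pH 7.0). Slopes (mAU/min) normalized to vehicle = 100%, 4-parameter fit; Y75 or Y125 reported.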

[3] = biological target: T1, Porcine ventricle myofibrils (ventricular myosin ATPase) (Sus scrofa, UniProt P79293); test: Myofibril ATPase assay, porcine ventricle myofibrils; type: biochemical, porcine (Yucatan minipigs); settings: porcine ventricle myofibrils
T1 construct: Myofibrils from porcine cardiac muscle was isolated from the left ventricle of Yucatan minipigs; tissue Exemplar Genetics; host or cells: left ventricle of Yucatan minipigs, myofibrils prepared in house
T1 sequence (P79293 whole entry): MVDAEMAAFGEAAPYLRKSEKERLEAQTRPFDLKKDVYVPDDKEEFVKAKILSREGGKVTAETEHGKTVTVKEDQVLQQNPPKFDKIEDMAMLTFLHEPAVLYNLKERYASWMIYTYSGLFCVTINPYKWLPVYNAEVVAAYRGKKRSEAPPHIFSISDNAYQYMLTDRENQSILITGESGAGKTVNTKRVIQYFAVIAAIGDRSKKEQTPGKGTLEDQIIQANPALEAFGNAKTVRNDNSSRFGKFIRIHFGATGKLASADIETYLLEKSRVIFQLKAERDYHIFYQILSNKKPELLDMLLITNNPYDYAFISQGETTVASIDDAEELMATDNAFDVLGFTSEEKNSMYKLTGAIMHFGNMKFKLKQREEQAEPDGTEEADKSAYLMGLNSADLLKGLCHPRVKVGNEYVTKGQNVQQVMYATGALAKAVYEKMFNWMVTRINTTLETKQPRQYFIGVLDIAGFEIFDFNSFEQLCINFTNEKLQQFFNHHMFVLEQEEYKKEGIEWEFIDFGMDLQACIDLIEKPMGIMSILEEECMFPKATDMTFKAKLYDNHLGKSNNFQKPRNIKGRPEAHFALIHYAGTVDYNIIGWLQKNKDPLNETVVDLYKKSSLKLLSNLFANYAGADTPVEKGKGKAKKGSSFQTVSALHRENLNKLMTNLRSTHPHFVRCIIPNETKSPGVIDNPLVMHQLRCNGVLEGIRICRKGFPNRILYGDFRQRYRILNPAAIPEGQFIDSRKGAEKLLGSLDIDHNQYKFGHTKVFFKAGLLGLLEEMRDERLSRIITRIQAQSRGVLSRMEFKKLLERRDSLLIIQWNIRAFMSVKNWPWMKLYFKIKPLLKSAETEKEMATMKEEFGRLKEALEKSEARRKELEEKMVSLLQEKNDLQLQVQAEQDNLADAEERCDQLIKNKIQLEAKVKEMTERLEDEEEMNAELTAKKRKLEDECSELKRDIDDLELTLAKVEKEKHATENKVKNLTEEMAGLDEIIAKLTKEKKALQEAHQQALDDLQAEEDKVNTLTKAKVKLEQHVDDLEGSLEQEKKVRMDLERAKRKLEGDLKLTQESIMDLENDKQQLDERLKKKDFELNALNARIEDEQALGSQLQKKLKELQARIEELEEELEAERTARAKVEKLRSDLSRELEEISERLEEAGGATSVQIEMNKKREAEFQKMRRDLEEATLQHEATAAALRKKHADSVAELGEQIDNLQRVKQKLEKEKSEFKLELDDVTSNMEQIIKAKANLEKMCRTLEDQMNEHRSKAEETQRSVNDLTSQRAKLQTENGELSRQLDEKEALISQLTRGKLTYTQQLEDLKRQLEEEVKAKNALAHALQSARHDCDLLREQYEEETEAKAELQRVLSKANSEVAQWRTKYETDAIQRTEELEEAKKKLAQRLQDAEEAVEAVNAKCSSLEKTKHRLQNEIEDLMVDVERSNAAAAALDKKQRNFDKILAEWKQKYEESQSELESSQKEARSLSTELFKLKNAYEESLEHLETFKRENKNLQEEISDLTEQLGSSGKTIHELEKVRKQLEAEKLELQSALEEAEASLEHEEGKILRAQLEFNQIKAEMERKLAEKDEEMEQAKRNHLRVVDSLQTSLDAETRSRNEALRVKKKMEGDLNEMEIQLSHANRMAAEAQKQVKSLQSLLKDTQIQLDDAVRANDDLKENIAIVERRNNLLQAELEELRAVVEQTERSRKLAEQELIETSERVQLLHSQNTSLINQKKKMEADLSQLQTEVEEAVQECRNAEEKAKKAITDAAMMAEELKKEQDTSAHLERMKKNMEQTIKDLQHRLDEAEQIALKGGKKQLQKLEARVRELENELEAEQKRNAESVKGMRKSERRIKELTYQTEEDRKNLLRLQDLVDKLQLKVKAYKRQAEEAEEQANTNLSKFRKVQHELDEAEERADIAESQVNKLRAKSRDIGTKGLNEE
How it was run: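 In a coupled enzyme format, ADP from myofibril ATPase drives NADH oxidation, monitored kinetically at 340 nm for 75 min using minipig ventricle myofibrils. Effective concentrations giving 25% loss or gain of activity relative to vehicle were calculated from 4-parameter fits.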

[4] = Y75 value (75% activity relative to no compound)

Row | SMILES | Skeletal EC25 ([1]; Y75 value) [µM] | Atrial EC25 [2, 4] [µM] | Ventricular EC25 ([3]; Y75 value) [µM] | Skeletal EC25 ([1]; Y75 value (no ‡ mark)) [µM] | Atrial EC25 ([2]; Y75 value (no ‡ mark)) [µM] | Ventricular EC25 ([3]; Y75 value (no ‡ mark)) [µM] | Skeletal EC25 ([1]; ‡ Y125 value, not a Y75 value (125% activity relative to no compound))
1 | Cc1nccc2[nH]c(=O)c(CC(=O)N[C@@H](CO)c3ccc(C#N)cc3F)c(C)c12 (single isomer, unassigned) [compound 243] | 0.17 | 0.56 | 2.20 |  |  |  | 
2 | C[C@H](NC(=O)[C@@H](C)c1cc2c(Cl)c(O)ccc2[nH]c1=O)c1ccc(F)cc1F (single isomer, unassigned) [compound 88] |  |  |  | 74.46 | 83.97 | 88.39 | 
3 | Cc1nccc2[nH]c(=O)c(CC(=O)N[C@H]3CCc4cc(C#N)cc(F)c43)c(C)c12 (single isomer, unassigned) [compound 198] | 0.02 | 0.31 | 0.18 |  |  |  | 
4 | Cc1cccc([C@H](CO)NC(=O)Cc2c(C)c3c(C)nccc3[nH]c2=O)c1 (single isomer, unassigned) [compound 313] | 100.00 | 100.00 | 100.00 |  |  |  | 
5 | Cc1c(CC(=O)N[C@H](C)c2ccc(F)cn2)c(=O)[nH]c2cccc(F)c12 [compound 43] |  |  |  | 14.83 | 100.00 | 100.00 | 
6 | Cc1c(CC(=O)N[C@H](CO)c2ccc(F)cc2F)c(=O)[nH]c2ccnc(OC3CC3)c12 [compound 199] | 13.03 | 100.00 | 67.50 |  |  |  | 
7 | C[C@H](NC(=O)Cc1cc2c(F)c(F)ccc2[nH]c1=O)c1ccc(F)cc1F [compound 118] |  |  |  | 0.03 | 0.06 | 0.30 | 
8 | Cc1c(CC(=O)N[C@@H](C)c2ccc(F)cc2F)c(=O)[nH]c2ccc(F)c(C3CC3)c12 [compound 101] |  |  |  | 0.23 | 0.04 | 0.11 | 
9 | Cc1c(CC(=O)N[C@H](C)c2ncc(F)cc2F)c(=O)[nH]c2ccc(O)nc12 (single isomer, unassigned) [compound 222] | 100.00 | 100.00 | 100.00 |  |  |  | 
10 | Cc1c(CC(=O)N[C@@H](C)c2ccc(F)cc2F)c(=O)[nH]c2ccnc(NC3CC3)c12 [compound 276] | 0.14 | 1.25 | 15.06 |  |  |  | 
11 | COc1cccc([C@H](C)NC(=O)Cc2c(C)c3c(C)nccc3[nH]c2=O)n1 (single isomer, unassigned) [compound 310] | 100.00 | 100.00 | 100.00 |  |  |  | 
12 | Cc1nccc2[nH]c(=O)c(CC(=O)N[C@H](C)c3ccc(C#N)cc3F)c(C)c12 (single isomer, unassigned) [compound 255] | 0.71 | 1.30 | 1.77 |  |  |  | 
13 | Cc1c(CC(=O)N[C@@H](C)c2ccc(F)cc2F)c(=O)[nH]c2ccc(O)nc12 [compound 299] | 17.50 | 10.21 | 100.00 |  |  |  | 
14 | C[C@H](NC(=O)[C@@H](C)c1cc2nc(C#N)ccc2[nH]c1=O)c1ccc(F)cc1F (single isomer, unassigned) [compound 258] | 100.00 | 100.00 | 63.55 |  |  |  | 

Next, values leading:

Row | Skeletal EC25 ([1]; Y75 value) [µM] | Atrial EC25 [2, 4] [µM] | Ventricular EC25 ([3]; Y75 value) [µM] | Skeletal EC25 ([1]; Y75 value (no ‡ mark)) [µM] | Atrial EC25 ([2]; Y75 value (no ‡ mark)) [µM] | Ventricular EC25 ([3]; Y75 value (no ‡ mark)) [µM] | Skeletal EC25 ([1]; ‡ Y125 value, not a Y75 value (125% activity relative to no compound)) | SMILES
15 | 0.07 | 0.22 | 0.29 |  |  |  |  | Cc1nccc2[nH]c(=O)c(C(F)(F)C(=O)N[C@@H](C)c3ccc(C#N)cc3F)c(C)c12 (single isomer, unassigned) [compound 3508]
16 |  |  |  | 1.15 | 0.45 | 6.13 |  | C[C@@H](NC(=O)C1(c2cc3c(F)c(F)ccc3[nH]c2=O)CC1)c1cnc(C#N)cn1 (single isomer, unassigned) [compound 4829]
17 |  |  |  | 0.15 | 0.15 | 0.26 |  | Cc1c(C(F)(F)C(=O)N[C@@H](C)c2ccc(F)cc2F)c(=O)[nH]c2ccc(F)cc12 [compound 4816]
18 |  |  |  |  | 45.39 | 100.00 | 45.96‡ μM | Cc1c(C2(C(=O)N[C@@H](C)c3cccc(C#N)n3)CC2)c(=O)[nH]c2ccc(F)c(F)c12 (single isomer, unassigned) [compound 2548]
19 | 0.34 | 100.00 | 100.00 |  |  |  |  | COc1nccc2[nH]c(=O)c(CC(=O)N[C@@H](C)c3ccc(F)cc3F)c(C(F)(F)F)c12 [compound 423]
20 |  |  |  | 5.70 | 2.19 | 38.21 |  | C[C@@H](NC(=O)Cc1cc2cc(F)c(F)cc2[nH]c1=O)c1ncc(C#N)cn1 (single isomer, unassigned) [compound 2035]
21 |  |  |  | 0.47 | 1.90 | 0.15 |  | Cc1c(F)ccc2[nH]c(=O)c(CC(=O)N[C@H](C)c3ncc(C#N)cc3F)c(C#N)c12 [compound 1149]
22 |  |  |  | 20.88 | 0.44 | 100.00 |  | N#Cc1cc(F)c2c(c1)OC[C@H]2NC(=O)C1(c2cc3c(F)c(F)ccc3[nH]c2=O)CC1 (single isomer, unassigned) [compound 4821]
23 | 15.42 | 100.00 | 100.00 |  |  |  |  | C[C@@H](NC(=O)Cc1cc2c(C#N)nccc2[nH]c1=O)c1ccc(F)cn1 [compound 474]
24 | 0.03 | 0.18 | 0.92 |  |  |  |  | Cc1c([C@@H](C)C(=O)N[C@@H](C)c2ccc(F)cc2F)c(=O)[nH]c2ccnc(Cl)c12 (single isomer, unassigned) [compound 365]
25 |  |  |  | 3.54 | 0.13 | 0.47 |  | C[C@@H](NC(=O)C1(c2cc3c(F)c(F)ccc3[nH]c2=O)CC1)c1ncc(C#N)cc1F (single isomer, unassigned) [compound 2592]
26 | 100.00 | 100.00 | 100.00 |  |  |  |  | Cc1nccc2[nH]c(=O)c(CC(=O)N[C@H](CO)Cc3ccccc3)c(C)c12 [compound 495]
27 | 1.28 | 91.43 | 100.00 |  |  |  |  | CCc1nccc2[nH]c(=O)c(CC(=O)N[C@@H](C)c3ccc(F)cc3F)cc12 [compound 437]
28 | 100.00 | 100.00 | 100.00 |  |  |  |  | Cc1c(CC(=O)N[C@H](C)c2ccc(C#N)cn2)c(=O)[nH]c2ccncc12 [compound 466]
29 |  |  |  | 14.65 | 16.13 | 20.79 |  | Cc1c(C(F)(F)C(=O)N[C@H](C)c2cc(C#N)ccn2)c(=O)[nH]c2ccc(F)cc12 (single isomer, unassigned) [compound 2575]
30 |  |  |  | 0.29 | 1.44 | 1.62 |  | Cc1nc([C@H](C)NC(=O)Cc2c(C)c3c(C)c(F)ccc3[nH]c2=O)ncc1C#N (single isomer, unassigned) [compound 4840]
31 |  |  |  | 2.39 | 0.71 | 33.85 |  | Cc1cc(F)cnc1[C@H](C)NC(=O)C1(c2cc3c(F)c(F)ccc3[nH]c2=O)CC1 (single isomer, unassigned) [compound 4806]
32 |  |  |  | 12.10 | 31.81 | 100.00 |  | Cc1nc(C#N)ncc1[C@@H](C)NC(=O)Cc1cc2cc(F)c(F)cc2[nH]c1=O [compound 1096]

Source: patent US12448369B2 (Edgewise Therapeutics, Inc., priority 2023, dated 2025)
